Laboratory results reported in patent publication US20180214400A1, “THE USE OF KAURANES COMPOUNDS IN THE MANUFACTURE OF MEDICAMENT FOR TREATMENT OF CADIAC HYPERTROPY AND PULMONARY HYPERTENSION” (KEY-PHARMA BIOMEDICAL INC., priority 2015, published 2018).

Experiments:
TAC rats [1] = assay: Actin remodeling (FITC-phalloidin) and cardiac fibrosis (picrosirius red) in TAC rats; format: in vivo, Wistar rats; conditions: for reduction in interstitial fibrosis: 8 mg/kg/d; for level of myocardia F-actin (FITC-phalloidin staining): 9 weeks TAC, compound A 8 mg/kg/d, sildenafil 70 mg/kg/d
Description: TAC between the innominate artery and the left carotid artery was conducted to induce pressure overload for 3 weeks (3-week TAC) or 9 weeks (9-week TAC). Sham control animals underwent the same operation, but without aortic constriction. All surgical procedures were performed with animals anesthetized with 3% pentobarbital sodium injected intraperitoneally (i.p. 40 mg/kg). During the surgery period, rats were intubated and ventilated with a rodent ventilator (Harvard Apparatus, Holliston, Mass., USA). Both 3-week and 9-week TAC-exposed rats were randomly divided into five groups (n=8-10 rats) including a TAC vehicle control, COMPOUND A, low (TAC+COMPOUND A (L), 1 mg/kg/d), middle (TAC+COMPOUND A (M), 2 mg/kg/d), high (TAC+COMPOUND A (H), 8 mg/kg/d) dose group respectively, and sildenafil (TAC+Sil, 70 mg/kg/d) as a positive control group. Sham controls were all treated with vehicle. Acute and chronic mortality from the TAC procedure was <5%. The treat group was intra-gastric administrated with sodium salt of compound A which was solved in a mixture of saline and organic solvent of the same volume (1:1, 0.5 ml) and sildenafil which was solved in distilled water. All drugs and vehicle treatment were given twice a day after surgery for three days as designed. The animals were examined at 3 weeks and 9 weeks after surgery accordingly. At the end of the observation periods and after hemodynamic measurement in vivo, all animals were sacrificed and hearts were explanted for further Analyses. Tissue sections of rat hearts were fixed in 10% neutral-buffered formalin, embedded in paraffin, cut into […] serial sections, and then stained with haematoxylin and eosin (H&E), picrosirius red or phalloidin. Nikon system and Zeiss confocal microscope were used to capture digital images. Stained with H&E was to evaluate cell size, stained with picrosirius red (sigma CA) was to test fibrosis using standard procedure and the amount of F-actin was stained with phalloidin. We determined cross sectional cell area and interstitial collagen fraction using computer-assisted image analysis (Image-Pro Plus software), with the observer blinded as to tissue source. At least four or five different hearts were quantified for analysis. Some transcription factors important for hypertrophy influence actin dynamics, which is regulated by free G-actin and polymeric F-actin. A higher F-to-G actin content is an important result of the activation of hypertrophy pathways. The level of myocardia F-actin was measured by FITC-phalloidin staining. […] TAC increased the level of F actin, thus lead to actin dynamics. Both compound A and sildenafil can reduced the expression of F actin and maintain F/G actin balance. To determine whether compound A attenuates TAC-induced cardiac fibrosis, heart tissues were stained with picrosirius red to detect interstitial collagen distribution in left ventricular. In both 3-week and 9-week TAC groups, TAC induced significant interstitial fibrosis (P<0.05). The collagen content increased 5.7 fold and 7.5 fold in 3-week and 9-week TAC control groups, respectively, compared to sham control group.

TAC rats [2] = assay: Heart rate variability spectral analysis in TAC rats; format: in vivo; conditions: TAC for 9 weeks
Description: Three or nine weeks after TAC operation, rats were anesthetized with pentobarbital sodium (i.p. 40 mg/kg). The electrocardiogram (ECG) was measured using the II Einthoven lead. Three stainless steel 22G needle electrodes were localized in the insertion of the right (G1) and left (GND) front legs, and in the left (G2) rear leg. Accordingly, 10 min of ECG recordings were digitally acquired at 2 kHz prior to any maneuver. Heart rate variability-Spectral Analysis was performed using fast Fourier transformation. Oscillatory components were separated into very low frequency (VLF; <0.04 Hz), low frequency (LF; 0.04-0.6 Hz), or high frequency (HF; 0.6-2.5 Hz) bands. HRV components were expressed in normalized units (n.u.) as a percentage of total power minus the VLF component. Efferent vagal parasympathetic activity is a major contributor to the HF component and both sympathetic and vagal influences contribute to the LF component; thus the ratio of LF to HF is commonly utilized as a measure of sympathovagal balance. Parameters of the heart rate variability (HRV) are indicators for cardiac autonomic balance. […] This invention disclosed a novel used of compound A for restore cardiac autonomic balance by suppress elevated sympathetic activity, which sildenafil had no such effect.

TAC rats [3] = assay: TAC-induced cardiac hypertrophy and cardiomyocyte dilation in rats; format: in vivo, Wistar rats; conditions: for cardiac and myocyte hypertrophy: 3-week TAC groups; for increment of cardiomyocyte cross-sectional area: 3-week TAC; for HW / HW/BW: 3 wk TAC
Description: TAC between the innominate artery and the left carotid artery was conducted to induce pressure overload for 3 weeks (3-week TAC) or 9 weeks (9-week TAC). Sham control animals underwent the same operation, but without aortic constriction. All surgical procedures were performed with animals anesthetized with 3% pentobarbital sodium injected intraperitoneally (i.p. 40 mg/kg). During the surgery period, rats were intubated and ventilated with a rodent ventilator (Harvard Apparatus, Holliston, Mass., USA).
Both 3-week and 9-week TAC-exposed rats were randomly divided into five groups (n=8-10 rats) including a TAC vehicle control, COMPOUND A, low (TAC+COMPOUND A (L), 1 mg/kg/d), middle (TAC+COMPOUND A (M), 2 mg/kg/d), high (TAC+COMPOUND A (H), 8 mg/kg/d) dose group respectively, and sildenafil (TAC+Sil, 70 mg/kg/d) as a positive control group. Sham controls were all treated with vehicle. Acute and chronic mortality from the TAC procedure was <5%. The treat group was intra-gastric administrated with sodium salt of compound A which was solved in a mixture of saline and organic solvent of the same volume (1:1, 0.5 ml) and sildenafil which was solved in distilled water. All drugs and vehicle treatment were given twice a day after surgery for three days as designed. The animals were examined at 3 weeks and 9 weeks after surgery accordingly. At the end of the observation periods and after hemodynamic measurement in vivo, all animals were sacrificed and hearts were explanted for further Analyses.
Tissue sections of rat hearts were fixed in 10% neutral-buffered formalin, embedded in paraffin, cut into […] serial sections, and then stained with haematoxylin and eosin (H&E), picrosirius red or phalloidin. Nikon system and Zeiss confocal microscope were used to capture digital images. Stained with H&E was to evaluate cell size, stained with picrosirius red (sigma CA) was to test fibrosis using standard procedure and the amount of F-actin was stained with phalloidin. We determined cross sectional cell area and interstitial collagen fraction using computer-assisted image analysis (Image-Pro Plus software), with the observer blinded as to tissue source. At least four or five different hearts were quantified for analysis.
Adult Wistar rats were subjected to TAC for 3 weeks and treated with vehicle, COMPOUND A or sildenafil, respectively. […] The cardiac and myocyte hypertrophy were ameliorated by compound A or sildenafil in the 3-week TAC groups (Table 1).

[4] = comp. A (L) 1 mg/kg/d intra-gastric

SMILES	reduction in interstitial fibrosis (TAC rats [1]; 3-week TAC) [%]	reduction in interstitial fibrosis (TAC rats [1]; 9-week TAC) [%]	level of myocardia F-actin (FITC-phalloidin staining) (TAC rats [1])	LF/HF ratio (TAC rats [2])	cardiac and myocyte hypertrophy (TAC rats [3])	increment of cardiomyocyte cross-sectional area (TAC rats [3]; 1 mg/kg) [%]	increment of cardiomyocyte cross-sectional area (TAC rats [3]; 2 mg/kg) [%]	increase of cardiomyocyte cross-sectional area comparing to Sham rats (TAC rats [3]; 3 weeks TAC rats, dose not stated (TAC alone 76%)) [%]	HW (TAC rats [3]; [4]) [g]	HW/BW (TAC rats [3]; [4]) [mg/g]	inhibition effect on cardiac fibrosis compared to compound A (TAC rats [1]; TAC rats)	increment of cardiomyocyte cross-sectional area (TAC rats [3]; 70 mg/kg) [%]	HW (TAC rats [3]; sildenafil 70 mg/kg/d) [g]	HW/BW (TAC rats [3]; sildenafil 70 mg/kg/d) [mg/g]
C[C@@]12CC[C@@H]3[C@@](CC[C@H]4[C@@]3(C)CCC[C@@]4(C)C(=O)O)(CC1=O)C2 [Compound A, (4α,8β,13β)-13-methyl-16-oxo-17-norkauran-18-oic acid]	58.2	80.8	returned to control conditions	reversed to normal	ameliorated	15.1	4.1	10	0.72 ± 0.03	2.862 ± 0.099	–	–	–	–
CCCc1nn(C)c2c(=O)[nH]c(-c3cc(S(=O)(=O)N4CCN(C)CC4)ccc3OCC)nc12 [sildenafil, reference compound]	–	–	returned to control conditions	did not reduce	ameliorated	–	–	–	–	–	less inhibition effect	16.3	0.76 ± 0.04	2.86 ± 0.117
